From PMC6986439, “Sultiame pharmacokinetic profile in plasma and erythrocytes after single oral doses: A pilot study in healthy volunteers” (Pharmacology Research & Perspectives, 2020)
“And” between values parts separate entries of the source, which are not always exact repeats. Equal entries are not always repeated. Where two headings read alike, the source gives them in different places.

Experiments:
[1] = Population PK compartmental analysis (two-compartment model with saturable ligand to receptor binding); format: in vivo, human
Protocol: A population PK analysis was also performed using a nonlinear mixed‐effect modeling approach (NONMEM version 7.4, ICON Development Solutions, Hanover MD, USA). […] The model was expressed in terms of differential equations and first‐order rate constants of absorption (ka), elimination (ke), association with (kon) and dissociation from (koff) receptors, maximal binding capacity (Btot), apparent central volume of distribution (Vc/F), and erythrocytes’ volume of distribution (Very). Note that Very actually encompasses the volume of all types of cells containing receptors, assumed to tally with the sampled erythrocytes. Plasma protein binding was assumed constant over the whole range of observed concentrations. Renal extraction fraction (Qren) was added to characterize urine excretion with an additional compartment for urine data. Values of kon and koff characterized in vitro at different temperatures were used as initial estimates and the value of kon to 2018 µM^−1 h^−1 at 37°C fixed in the in vivo model. F was not evaluated, making the model estimate apparent values for Vc/F and CL/F. The first‐order elimination rate constant from the central compartment was calculated as ke = (CL/F)/(Vc/F). The first value below the LLOQ was equaled to LLOQ/2 and subsequent nonquantifiable values were discarded (M6 method).12 Details concerning differential equations and model building steps and adjustment are available in Supplemental material.
Figure 1 Compartmental model accounting for nonlinearity of distribution. Aa, amount of sultiame at the absorption site; Ap, amount of sultiame in plasma and central compartment; Vc, central volume of distribution; Aery, amount of sultiame in the cells, assumed to be bound to receptors; Very, cellular volume of distribution; ka, absorption rate constant; ke, elimination rate constant; kon, constant of association onto receptors binding sites; koff, constant of dissociation from the binding site; Bbound, amount of occupied receptors, assumed equal to Aery; Bfree, amount of free binding sites; Btot, sultiame maximal binding capacity (mg); Qren, renal fraction of the elimination rate; Foral, oral bioavailability, assumed equal to 1
A stepwise procedure was used to identify the model that best fitted the data, comparing two‐, three‐, and four‐compartmental models (peripheral or separate intracellular compartments for free and bound sultiame), and other nonlinear models (Bmax sigmoid model). Exponential errors were used for the description of between‐subject variability (BSV) of PK parameters. Proportional, additive, and mixed error models were compared to describe the residual variability. The stability and internal validity of the final model were assessed by means of standard procedures, detailed in Supplemental material. Covariates were not analyzed due to the limited number of subjects included.
Our population PK analysis used a non-linear mixed effect two-compartment model with first-order absorption incorporating a saturable ligand to receptor binding. We fitted it to our data with the NONMEM software (version 7.4, ICON Development Solutions, Hanover MD, USA), using the ADVAN13 subroutine.
Notice that Aery simultaneously expresses the amount of binding sites occupied by sultiame (Bbound). Thus, the amount of free binding sites corresponds to Bfree = (Btot – Aery), and the model only needs the parameter Btot to characterize the size of the saturable compartment associated to receptor binding (in mg of sultiame). The values of kon and koff characterized in vitro at 37°C were used in the in vivo model as initial estimates, and the kon was fixed to 2018 µM^-1· h^-1.
The model was fitted to the data using first order conditional estimation (FOCE) to obtain values for the eight model parameters listed above. […]

[2] = Safety and tolerability assessments in healthy volunteers; format: in vivo, human
Protocol: All adverse events were recorded with an evaluation of their severity and imputability to the study drug. Each volunteer received a full medical examination at screening and at the end of the study. Visual analogue scales (VAS) on paper support recorded the intensity of 12 potential symptoms (abdominal pain, appetite, nausea, taste of sparkling water, fatigue, headache, dyspnea, dizziness, paresthesia, difficulty in concentration, irritability, and depression) predrug (0 hour) at 0.5, 1, 2, 4, 6, 8, 10, and 24 hours postdose. Vital signs (supine blood pressure, heart rate, body temperature, and respiratory frequency) were measured predose and at 1, 2, 4, 6, 8, 10, and 24 hours postdose. Laboratory parameters, drug screen, and urinalysis were performed at screening and at study end.

[3] = population estimate of final model
[4] = single oral doses 50, 100, 200 mg

Btot ([1]; bootstrap evaluation, median): 111 mg | QRen ([1]; bootstrap evaluation, median): 28.8% | Vc ([1]; bootstrap evaluation, median): 64.8 L | Very ([1]; bootstrap evaluation, median): 3.27 L | ka ([1]; bootstrap evaluation, median): 1.88 h⁻¹ | koff ([1]; bootstrap evaluation, median): 2.244 s⁻¹ | kon ([1]; bootstrap evaluation, median, fixed): 560600 M⁻¹ s⁻¹ | Kd ([1]; final population model, read-out: estimated kD of final model (koff/kon)): 4 µM | Vd ([1]; male, human, erythrocytes, oral, population estimate of final model, read-out: Very, cell (erythrocyte compartment) volume of distribution): 3.3 L | Vd ([1]; male, human, plasma, oral, population estimate of final model, read-out: Vc, central volume of distribution): 64.8 L | clearance ([1]; male, human, plasma, oral, bootstrap evaluation, median of 2000 replicates, read-out: CLplasma (converted)): 166 mL/min | kon, association constant ([1]; not estimated but fixed in the in vivo model to the in vitro value at 37°C): 560600 M⁻¹ s⁻¹ | Btot, maximal binding capacity [1, 3]: 111 mg | QRen, fraction eliminated by renal route [1, 3]: 28.8% | Very, cell (erythrocyte compartment) volume of distribution [1, 3]: 3.27 L | ka, constant of absorption [1, 3]: 1.88 h⁻¹ | koff, dissociation constant [1, 3]: 2.244 s⁻¹ | CLplasma, apparent plasma clearance (CL/F) ([1]; population estimate of final model, oral 50, 100, 200 mg): 10.0 L/h and 9.95 L/h
SMILES: NS(=O)(=O)c1ccc(N2CCCCS2(=O)=O)cc1 [Sultiame]
transient facial and limb paresthesia ([2]; after intake of the highest dose of 200 mg, four subjects): reported by three subjects | gastrointestinal and central nervous system tolerance using VAS [2, 4]: limited impact | symptom most frequently reported [2, 4]: Fatigue | severe or serious adverse events ([2]; single oral doses 50, 100, 200 mg, four subjects): No severe or serious adverse events were reported
